Measured values reported in patent EP1222194B1, “7-ACYLAMINO-3-HETEROARYLTHIO-3-CEPHEM CARBOXYLIC ACID ANTIBIOTICS AND PRODRUGS THEREOF” (priority 1999, dated 2001).

System: S. aureus ATCC 13709 (Smith diffuse)
Assay: Murine model for lethal bacteremic peritonitis (septicemia)
Format: in vivo, mice
Conditions: Dose 5 mg/kg, subcutaneously at 0 and 2 hrs post-challenge
Method: 10 mice/group were injected intraperitoneally with 2.98x10^7 cfu S. aureus ATCC 13709 (Smith diffuse) and treated at 0 and 2hrs post-challenge with serial two-fold doses of new cephalosporin antibiotic, imipenem and vancomycin subcutaneously in order to determine the ED50. Male Swiss-Webster mice weighing originally 24.2 - 26.1 g were obtained from Charles Rivers Labs, Hollister, CA. Mice were housed 10 per cage and given free access to water and mouse chow.
Staphylococcus aureus ATCC 13709 (Smith diffuse) was grown overnight at 37 °C in Brain-heart Infusion broth (BHIB). The following morning, it was subcultured to fresh BHIB and incubated for 4-5h at 37 °C. The log-phase growth cells were washed once with physiological saline and adjusted to the desired concentration by correlation of absorbency at OD 600 nm with predetermined plate counts (NCCLS, 1994). The cell suspension was mixed with an equal volume of sterile 14% hog-gastric mucin (2). Inoculum was kept in an ice bath until used (<1h).
Mice were challenged via an injection of 0.5 mL bacterial suspension intraperitoneally. The bacterial challenge was 2.98 x 10^7 cfu/mouse.
Imipenem (Primaxin IV; Lot 7294A), vancomycin (Vancocin; Lot 8MU60W), and new cephalosporin antibiotic were prepared by serial two-fold dilutions to concentrations of 0.078 - 0.005 mg/mL, 1.2 - 0.075 mg/mL, 0.3 - 0.02 mg/mL, 0.3 - 0.02 mg/mL and 0.3 - 0.02 mg/mL respectively in sterile water (1). All antibiotics were administered subcutaneously in 0.1 mL volumes at 0 and 2 hours post-challenge. Concentrations of all compounds are based on the weight of the bioactive ingredients.
The 50% effective dose (ED50) was calculated by the probit method (3) utilizing a program entitled Probit (Nycomed-Salutar).

For `NCCSCc1ccncc1SC1=C(C(=O)O)N2C(=O)[C@@H](NC(=O)/C(=N\O)c3nc(N)sc3Cl)[C@H]2SC1` [Cmpd 3, (7R)-7-[(Z)-2-(2-amino-5-chlorothiazol-4-yl)-2-(hydroxyimino)acetamido]-3-[4-(2-aminoethylthiomethyl)pyrid-3-ylthio]-3-cephem-4-carboxylic acid], the “Efficacy in murine septicemia %survival” value was 5/80%.
